Assay results from patent US9611276B2, “Imidazo bicyclic iminium compounds as antitumor agents” (THE BOARD OF TRUSTEES OF THE LELAND STANFORD JUNIOR …, priority 2012, dated 2017).

Key:
[1] = system: Hh pathway-dependent osteoblast differentiation; test: C3H10T(1/2) cell assay, alkaline phosphatase; format: cell-based
Description: C3H10T(1/2) cells were obtained from ATCC and cultured in DMEM (Invitrogen, 11965) containing 10% (v/v) fetal bovine serum (Invitrogen, No. 26140), and 1× PenStrep (Gibco, 15140).
(§1) All test compounds were dissolved in DMSO at 50 mM, serially diluted by 1:3, 1:4 or 1:5 in a 96-well translucent microplate (Greiner bio-one, 650201) and stored at −20° C. These serial dilutions were added to assay media freshly with final DMSO concentration of 0.2% (v/v).
The C3H10T(1/2) cell assay provides a measure of Hh pathway-dependent osteoblast differentiation. C3H10T(1/2) cells were seeded into a 96-well plate (20,000 cells/well), cultured for 30 hrs and then incubated with test compounds in DMEM (Invitrogen, 11965) containing 0.5% (v/v) fetal bovine serum (Invitrogen, 26140), 1× PenStrep (Gibco, 15140), and 10% (v/v) Shh-N-conditioned medium for 44 hrs. The cells were lysed with lysis buffer (50 μL/well) containing 50 mM Tris-HCl, pH 9.5, 150 mM NaCl, 50 mM MgCl2, and 1% (v/v) Triton X-100. 10 μL of the obtained lysate were analyzed for alkaline phosphatase activities using CDP-Star Substrate (Applied Biosystems, T2146) reagent (50 μL/well) on a microplate luminometer (Veritas). Biological triplicates were analyzed for each test compounds.

[2] = molecular target: T1, Smo (Mus musculus, UniProt P56726); test: Smo trafficking assay in NIH 3T3 cells; format: cell-based; conditions: Hh-responsive cells, ShhN stimulation
T1 construct: endogenous in cells; host or cells: NIH 3T3
T1 sequence (P56726 33-793): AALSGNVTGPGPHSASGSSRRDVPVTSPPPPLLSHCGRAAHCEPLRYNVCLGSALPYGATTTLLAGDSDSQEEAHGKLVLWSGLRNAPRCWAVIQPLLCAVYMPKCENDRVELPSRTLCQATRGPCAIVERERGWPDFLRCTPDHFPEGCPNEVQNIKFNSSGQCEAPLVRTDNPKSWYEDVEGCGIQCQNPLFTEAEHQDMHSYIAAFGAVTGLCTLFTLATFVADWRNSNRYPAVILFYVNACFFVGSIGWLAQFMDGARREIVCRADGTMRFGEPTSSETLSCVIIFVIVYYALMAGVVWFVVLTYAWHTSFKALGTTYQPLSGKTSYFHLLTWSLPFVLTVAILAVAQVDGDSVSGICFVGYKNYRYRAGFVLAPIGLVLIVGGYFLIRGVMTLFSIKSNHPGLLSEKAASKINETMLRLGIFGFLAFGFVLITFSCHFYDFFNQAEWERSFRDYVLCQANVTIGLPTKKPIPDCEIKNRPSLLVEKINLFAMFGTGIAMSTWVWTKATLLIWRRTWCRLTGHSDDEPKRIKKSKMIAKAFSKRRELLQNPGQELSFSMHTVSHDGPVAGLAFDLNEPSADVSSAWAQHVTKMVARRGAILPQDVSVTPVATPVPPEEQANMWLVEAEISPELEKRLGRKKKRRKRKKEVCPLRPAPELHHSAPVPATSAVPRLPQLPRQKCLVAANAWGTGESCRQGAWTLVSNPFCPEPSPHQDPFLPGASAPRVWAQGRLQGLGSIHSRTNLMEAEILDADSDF
Source text: The cells were imaged using a Plan Apochromat 63×/1.4-0.6 oil immersion objective on an upright Leica DM4500B compound microscope.

[3] = system: Sufu-KO-LIGHT cells; test: Sufu-KO-LIGHT cell assay, cytotoxicity (CellTiter 96 AQueous One); format: cell-based, mouse
Description: Sufu-KO-LIGHT cells were derived from Sufu knockout mouse embryonic fibroblasts according to the method of Chen et al. [Genes Dev. 2009; 23(16):1910-28.] The cells were co-transfected with the zeocin resistance vector (pVgRXR, Invitrogen) and a firefly luciferase reporter driven by eight Gli binding sites and a γ-crystallin basal promoter (8XGliBS-FL) [see Sasaki et al. Development. 1997; 124(7):1313-22.2]. […] Sufu-KO-LIGHT cells were cultured in DMEM (Invitrogen, 11965) containing 10% (v/v) fetal bovine serum (Invitrogen, No. 26140), 150 μg/mL zeocin (Invitrogen, R250-01), 1 mM sodium pyruvate (Invitrogen, 11360) and 1× PenStrep (Gibco, 15140).
as §1
The Sufu-KO-LIGHT cell assay provides a measure of Hh pathway activity and cytotoxicity. […] Bright Glo (Promega, E2620) reagent (50 μL/well) was added to the cells, and luciferase activities were determined on a microplate luminometer (Veritas). […] Cell viability was determined by measuring absorption at 490 nm after 1 hr of incubation on a microplate spectrophotometer (Benchmark Plus, Bio-Rad). Biological triplicates were analyzed for each test compounds.

[4] = molecular target: Gli2 (Homo sapiens, UniProt P10070); test: Overexpression of Gli2 in NIH-3T3 cells, firefly luciferase reporter; format: cell-based; parameters: expressed in transfected cells; host or cells: NIH-3T3 (mouse fibroblasts)
Gli2, sequence (P10070 whole entry, species assumed): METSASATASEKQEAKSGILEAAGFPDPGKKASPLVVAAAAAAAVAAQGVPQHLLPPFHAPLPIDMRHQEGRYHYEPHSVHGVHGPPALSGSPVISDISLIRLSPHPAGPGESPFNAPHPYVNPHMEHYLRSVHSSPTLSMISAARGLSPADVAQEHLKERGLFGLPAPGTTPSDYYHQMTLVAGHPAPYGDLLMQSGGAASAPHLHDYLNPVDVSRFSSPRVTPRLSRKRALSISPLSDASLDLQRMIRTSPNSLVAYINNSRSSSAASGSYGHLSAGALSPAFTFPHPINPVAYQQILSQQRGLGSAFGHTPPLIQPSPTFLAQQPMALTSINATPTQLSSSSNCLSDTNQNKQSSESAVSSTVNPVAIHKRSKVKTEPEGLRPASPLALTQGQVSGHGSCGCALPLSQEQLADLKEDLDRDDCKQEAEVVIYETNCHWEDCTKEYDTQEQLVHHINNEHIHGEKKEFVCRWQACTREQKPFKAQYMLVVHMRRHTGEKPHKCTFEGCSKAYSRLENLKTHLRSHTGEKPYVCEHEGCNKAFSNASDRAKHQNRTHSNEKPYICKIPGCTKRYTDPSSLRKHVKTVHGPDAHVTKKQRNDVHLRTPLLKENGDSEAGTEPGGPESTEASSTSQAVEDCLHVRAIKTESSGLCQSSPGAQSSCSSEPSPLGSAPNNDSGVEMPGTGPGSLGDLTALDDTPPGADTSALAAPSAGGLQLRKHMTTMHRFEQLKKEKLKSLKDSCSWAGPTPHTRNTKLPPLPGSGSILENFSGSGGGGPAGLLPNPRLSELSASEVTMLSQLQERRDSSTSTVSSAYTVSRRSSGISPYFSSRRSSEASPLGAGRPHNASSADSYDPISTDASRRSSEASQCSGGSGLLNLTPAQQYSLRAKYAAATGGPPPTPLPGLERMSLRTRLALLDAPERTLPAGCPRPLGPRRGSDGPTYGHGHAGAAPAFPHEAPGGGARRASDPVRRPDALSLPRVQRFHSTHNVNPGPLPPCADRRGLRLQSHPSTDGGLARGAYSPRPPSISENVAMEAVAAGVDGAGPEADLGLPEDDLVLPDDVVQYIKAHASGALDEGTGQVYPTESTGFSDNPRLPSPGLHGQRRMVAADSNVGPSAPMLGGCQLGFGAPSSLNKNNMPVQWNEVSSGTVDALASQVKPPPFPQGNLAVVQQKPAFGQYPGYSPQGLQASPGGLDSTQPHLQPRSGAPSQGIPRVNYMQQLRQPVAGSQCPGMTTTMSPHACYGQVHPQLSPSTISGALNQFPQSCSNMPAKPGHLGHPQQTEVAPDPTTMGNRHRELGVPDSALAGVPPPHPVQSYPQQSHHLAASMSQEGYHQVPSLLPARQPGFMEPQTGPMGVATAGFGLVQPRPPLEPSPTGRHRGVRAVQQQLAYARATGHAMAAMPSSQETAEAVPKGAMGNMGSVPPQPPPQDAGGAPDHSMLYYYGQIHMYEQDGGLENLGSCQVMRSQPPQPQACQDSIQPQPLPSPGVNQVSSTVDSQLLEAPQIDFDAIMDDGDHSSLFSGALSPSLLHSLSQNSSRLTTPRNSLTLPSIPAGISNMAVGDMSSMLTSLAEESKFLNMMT
Description: NIH-3T3 cells were obtained from ATCC and cultured in DMEM (Invitrogen, 11965) containing 10% (v/v) calf serum (ATCC, 30-2030), 1 mM sodium pyruvate (Invitrogen, 11360) and 1× PenStrep (Gibco, 15140).
as §1
Overexpression of Gli1 or Gli2 in NIH-3T3 cells provides a measure of Gli1- or Gli1/Gli2-induced pathway activity, respectively. NIH 3T3 cells were seeded into a 24-well plate (35,000 cells/well) and cultured for 30 hrs. […] The cells were lysed with passive lysis buffer (200 μL/well), and 10 μL of the obtained lysate were analyzed for firefly and Renilla luciferase activities using Dual-Luciferase Reporter Assay System (Promega, E1960) (50 μL/well of each reagent) on a microplate luminometer (Veritas). Biological triplicates were analyzed for each test compounds.

CCOc1ccc(-[n+]2cc(-c3ccc(Br)cc3)n3c2CCCCC3)cc1 [Compound A-1]
IC50 ([1]; Osteoblast, C3H10T(½) w/ ShhN): 5.2 ± 3.7 µM | Differentiation of C3H10T1/2 cells into alkaline-phosphatase-expressing osteoblasts ([1]; ShhN-conditioned medium): blocked | Effect on Smo localization / trafficking [2]: did not affect Smo localization | General cytotoxicity [3]: not generally cytotoxic | IC50, cytotoxicity ([3]; Sufu-KO-LIGHT cells): No toxicity | Hh reporter expression induced by exogenous Gli2 [4]: only partially inhibited
